Calls of active or inactive are those of the source.
Key:
Prothrombin = Prothrombin (Homo sapiens, UniProt P00734); assay: Thrombin 1536 HTS Dose Response Confirmation. [Related pubchem assays: 1046 (Thrombin 1536 HTS; hits were confirmed in this assay)]; format: functional
Coagulation factor XII = target: T1, Coagulation factor XII (Homo sapiens, UniProt P00748); format: functional;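 note: activated factor XIIa alpha cleaving a fluorogenic AMC peptide substrate; inhibitor potency from loss of enzyme activity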
T1 sequence (P00748 whole entry): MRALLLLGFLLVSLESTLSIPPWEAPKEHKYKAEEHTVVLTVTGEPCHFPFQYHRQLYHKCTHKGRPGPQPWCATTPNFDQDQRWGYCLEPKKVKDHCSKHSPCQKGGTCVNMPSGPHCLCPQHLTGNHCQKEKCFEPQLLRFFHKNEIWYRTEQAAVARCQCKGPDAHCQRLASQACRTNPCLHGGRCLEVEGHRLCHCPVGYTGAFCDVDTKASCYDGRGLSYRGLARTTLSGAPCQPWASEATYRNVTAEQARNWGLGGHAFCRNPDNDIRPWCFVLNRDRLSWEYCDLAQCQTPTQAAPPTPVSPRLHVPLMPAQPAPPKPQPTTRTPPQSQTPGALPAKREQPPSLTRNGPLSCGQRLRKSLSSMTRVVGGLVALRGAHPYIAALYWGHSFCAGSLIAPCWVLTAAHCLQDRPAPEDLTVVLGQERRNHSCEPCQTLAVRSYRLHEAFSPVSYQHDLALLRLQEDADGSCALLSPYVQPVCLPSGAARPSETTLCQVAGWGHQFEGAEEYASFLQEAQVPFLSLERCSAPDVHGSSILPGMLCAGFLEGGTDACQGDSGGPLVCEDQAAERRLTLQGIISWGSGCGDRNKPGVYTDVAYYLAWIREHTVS

cells [1] = format: functional, cell-based
Nonstructural protein 1 = Nonstructural protein 1 (Influenza A virus, UniProt Q194T2); format: functional, Influenza A virus (A/California/07/2009(H1N1))
Chain of Nonstructural protein 1 (Q194T2 whole entry): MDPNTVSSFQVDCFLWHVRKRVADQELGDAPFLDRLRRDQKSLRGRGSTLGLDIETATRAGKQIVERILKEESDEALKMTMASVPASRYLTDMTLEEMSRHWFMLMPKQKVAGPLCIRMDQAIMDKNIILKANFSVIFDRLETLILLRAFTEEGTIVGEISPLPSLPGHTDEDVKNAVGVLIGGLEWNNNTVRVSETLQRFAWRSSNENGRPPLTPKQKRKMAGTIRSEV

cells [2] = format: functional, cell-based; remark: listed apart in the source
H9c2 = assay: cells; format: functional, cell-based; settings: Rattus norvegicus, H9c2, Myocardium;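 note: confirmatory concentration-response retest of ultra-high-throughput screening hits for modulation of myocardial damage; cell death induced by hydrogen peroxide oxidative stress; compound pretreatment for 60 min then peroxide exposure for 2 h; potency is for protecting the cells against peroxide damage rather than for killing them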
Protein RecA = target: T2, Protein RecA (Mycobacterium tuberculosis, UniProt P9WHJ3); assay: Fluorescence Cell-Free Homogeneous Dose Retest to Identify Inhibitors of RecA-Intein Splicing Activity. [Related pubchem assays (depositor defined):AID2097, AID2223, AID489010, AID492950]; format: functional
T2 sequence (P9WHJ3 whole entry): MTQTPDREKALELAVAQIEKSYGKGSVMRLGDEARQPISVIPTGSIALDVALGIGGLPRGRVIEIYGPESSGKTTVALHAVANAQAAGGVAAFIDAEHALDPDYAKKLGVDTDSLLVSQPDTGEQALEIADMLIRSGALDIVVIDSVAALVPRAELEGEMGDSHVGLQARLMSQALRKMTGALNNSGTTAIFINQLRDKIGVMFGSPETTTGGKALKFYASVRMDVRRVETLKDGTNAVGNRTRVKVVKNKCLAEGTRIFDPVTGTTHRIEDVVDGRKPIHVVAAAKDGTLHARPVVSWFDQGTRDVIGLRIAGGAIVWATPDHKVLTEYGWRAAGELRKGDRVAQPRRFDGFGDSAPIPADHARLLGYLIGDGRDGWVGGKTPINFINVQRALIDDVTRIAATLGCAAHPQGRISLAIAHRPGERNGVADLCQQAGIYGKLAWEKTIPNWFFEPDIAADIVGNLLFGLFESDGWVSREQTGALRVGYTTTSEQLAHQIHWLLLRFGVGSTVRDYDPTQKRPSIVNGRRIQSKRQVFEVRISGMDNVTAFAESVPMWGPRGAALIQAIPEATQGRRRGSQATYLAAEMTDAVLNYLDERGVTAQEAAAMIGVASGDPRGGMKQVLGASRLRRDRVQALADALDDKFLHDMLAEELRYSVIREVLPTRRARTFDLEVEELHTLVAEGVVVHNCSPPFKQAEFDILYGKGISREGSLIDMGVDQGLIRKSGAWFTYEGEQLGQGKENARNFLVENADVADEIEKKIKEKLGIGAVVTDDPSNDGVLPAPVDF

[3] = target: T3, Replicative DNA helicase DnaB (Mycobacterium tuberculosis, UniProt P9WMR3); assay: DnaB intein splicing inhibitors, dose response, biochemical, cell-free fluorescence (AID 449749); format: functional
T3 sequence (P9WMR3 whole entry): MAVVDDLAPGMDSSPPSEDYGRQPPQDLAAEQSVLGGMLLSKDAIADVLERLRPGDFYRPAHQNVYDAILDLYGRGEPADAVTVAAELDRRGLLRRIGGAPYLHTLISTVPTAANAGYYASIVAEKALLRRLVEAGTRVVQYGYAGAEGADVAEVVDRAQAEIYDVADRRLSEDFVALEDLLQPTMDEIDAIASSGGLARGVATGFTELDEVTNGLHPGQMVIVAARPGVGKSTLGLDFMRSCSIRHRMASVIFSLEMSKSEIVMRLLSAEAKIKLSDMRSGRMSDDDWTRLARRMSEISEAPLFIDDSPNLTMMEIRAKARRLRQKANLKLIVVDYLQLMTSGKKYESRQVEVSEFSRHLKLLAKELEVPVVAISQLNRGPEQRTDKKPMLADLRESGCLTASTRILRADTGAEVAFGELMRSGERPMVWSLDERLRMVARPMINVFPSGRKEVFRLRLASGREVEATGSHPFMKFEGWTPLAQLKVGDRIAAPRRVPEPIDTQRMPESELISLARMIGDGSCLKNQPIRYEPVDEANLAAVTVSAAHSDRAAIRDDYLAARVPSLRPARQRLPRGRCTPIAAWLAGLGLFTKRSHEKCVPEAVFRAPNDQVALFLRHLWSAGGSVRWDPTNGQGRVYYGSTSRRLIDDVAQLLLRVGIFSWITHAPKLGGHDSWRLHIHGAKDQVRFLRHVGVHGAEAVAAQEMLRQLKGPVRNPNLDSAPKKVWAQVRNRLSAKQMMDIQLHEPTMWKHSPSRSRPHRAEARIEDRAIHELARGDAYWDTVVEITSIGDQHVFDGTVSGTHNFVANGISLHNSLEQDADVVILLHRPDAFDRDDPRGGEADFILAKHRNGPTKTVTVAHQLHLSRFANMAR

[4] = target: T4, Mannose-6-phosphate isomerase (Homo sapiens, UniProt P34949); assay: human PMI inhibitors, high substrate, primary screen, biochemical, fluorescence intensity, high mannose 6-phosphate (AID 1220)
T4 sequence (P34949 whole entry): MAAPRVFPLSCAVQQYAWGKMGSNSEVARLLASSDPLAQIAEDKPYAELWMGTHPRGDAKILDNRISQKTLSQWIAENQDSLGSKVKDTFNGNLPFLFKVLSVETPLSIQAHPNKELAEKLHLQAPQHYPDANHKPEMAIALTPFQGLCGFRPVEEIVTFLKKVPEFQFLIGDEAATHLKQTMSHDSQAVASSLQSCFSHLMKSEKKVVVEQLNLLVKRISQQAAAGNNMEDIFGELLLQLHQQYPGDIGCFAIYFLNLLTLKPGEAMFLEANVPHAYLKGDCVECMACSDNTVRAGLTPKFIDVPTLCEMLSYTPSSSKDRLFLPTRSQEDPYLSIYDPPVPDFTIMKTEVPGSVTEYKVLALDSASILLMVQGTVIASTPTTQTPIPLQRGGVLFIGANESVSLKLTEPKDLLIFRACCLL

Streptococcus = assay: Group A Streptococcus viability loss, dose response, counter-screen for streptokinase expression inhibitor project, luminescence, BacTiterGlo (AID 1915); format: functional, organism-based;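 note: potency for reduction of bacterial viability or growth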
Streptokinase A = target: T5, Streptokinase A (Streptococcus pyogenes serotype M1, UniProt P10520); assay: S. pyogenes streptokinase expression inhibitors, potency, dose response, plasminogen activation absorbance, OD405 (AID 1914); format: functional, Streptococcus pyogenes M1 GAS;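 note: secreted streptokinase activity via plasminogen activation per viability signal from cell pellet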
T5 sequence (P10520 whole entry): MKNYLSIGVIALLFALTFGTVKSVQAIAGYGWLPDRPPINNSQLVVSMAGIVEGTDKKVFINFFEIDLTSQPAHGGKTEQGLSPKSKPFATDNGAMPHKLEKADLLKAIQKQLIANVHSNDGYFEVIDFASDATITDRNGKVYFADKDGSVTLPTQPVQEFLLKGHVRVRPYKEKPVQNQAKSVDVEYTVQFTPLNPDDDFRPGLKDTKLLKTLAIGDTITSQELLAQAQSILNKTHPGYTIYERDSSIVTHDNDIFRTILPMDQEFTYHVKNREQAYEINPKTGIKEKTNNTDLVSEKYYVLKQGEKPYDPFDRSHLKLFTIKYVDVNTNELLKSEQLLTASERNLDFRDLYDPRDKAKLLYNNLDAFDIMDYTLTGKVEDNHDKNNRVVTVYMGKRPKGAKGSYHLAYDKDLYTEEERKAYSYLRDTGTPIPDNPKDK

[5] = test system: Streptococcus sp. 'group A'; assay: growth inhibition of control SK(-) GAS strain, dose response, counter-screen for streptokinase expression inhibitor project, luminescence, kanamycin, BacTiterGlo, confirmation (AID 1900); format: functional, organism-based
Cytochrome P450 2C9 = Cytochrome P450 2C9 (Homo sapiens, UniProt P11712)
Chain of Cytochrome P450 2C9 (P11712 whole entry): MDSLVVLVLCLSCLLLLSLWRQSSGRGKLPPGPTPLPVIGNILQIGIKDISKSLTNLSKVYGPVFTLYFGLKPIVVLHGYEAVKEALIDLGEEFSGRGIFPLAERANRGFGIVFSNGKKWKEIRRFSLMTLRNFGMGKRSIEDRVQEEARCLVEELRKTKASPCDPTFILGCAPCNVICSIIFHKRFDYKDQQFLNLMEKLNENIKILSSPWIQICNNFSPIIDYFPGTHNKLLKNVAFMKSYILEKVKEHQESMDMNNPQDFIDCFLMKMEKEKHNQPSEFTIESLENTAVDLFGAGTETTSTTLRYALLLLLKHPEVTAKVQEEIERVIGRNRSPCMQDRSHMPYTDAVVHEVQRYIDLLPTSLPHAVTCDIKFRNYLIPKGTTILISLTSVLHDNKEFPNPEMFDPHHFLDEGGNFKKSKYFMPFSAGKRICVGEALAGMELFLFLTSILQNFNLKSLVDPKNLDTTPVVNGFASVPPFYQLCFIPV

[6] = target: T6, Histone-lysine N-methyltransferase NSD2 (Homo sapiens, UniProt O96028); format: biochemical
T6 sequence (O96028 whole entry): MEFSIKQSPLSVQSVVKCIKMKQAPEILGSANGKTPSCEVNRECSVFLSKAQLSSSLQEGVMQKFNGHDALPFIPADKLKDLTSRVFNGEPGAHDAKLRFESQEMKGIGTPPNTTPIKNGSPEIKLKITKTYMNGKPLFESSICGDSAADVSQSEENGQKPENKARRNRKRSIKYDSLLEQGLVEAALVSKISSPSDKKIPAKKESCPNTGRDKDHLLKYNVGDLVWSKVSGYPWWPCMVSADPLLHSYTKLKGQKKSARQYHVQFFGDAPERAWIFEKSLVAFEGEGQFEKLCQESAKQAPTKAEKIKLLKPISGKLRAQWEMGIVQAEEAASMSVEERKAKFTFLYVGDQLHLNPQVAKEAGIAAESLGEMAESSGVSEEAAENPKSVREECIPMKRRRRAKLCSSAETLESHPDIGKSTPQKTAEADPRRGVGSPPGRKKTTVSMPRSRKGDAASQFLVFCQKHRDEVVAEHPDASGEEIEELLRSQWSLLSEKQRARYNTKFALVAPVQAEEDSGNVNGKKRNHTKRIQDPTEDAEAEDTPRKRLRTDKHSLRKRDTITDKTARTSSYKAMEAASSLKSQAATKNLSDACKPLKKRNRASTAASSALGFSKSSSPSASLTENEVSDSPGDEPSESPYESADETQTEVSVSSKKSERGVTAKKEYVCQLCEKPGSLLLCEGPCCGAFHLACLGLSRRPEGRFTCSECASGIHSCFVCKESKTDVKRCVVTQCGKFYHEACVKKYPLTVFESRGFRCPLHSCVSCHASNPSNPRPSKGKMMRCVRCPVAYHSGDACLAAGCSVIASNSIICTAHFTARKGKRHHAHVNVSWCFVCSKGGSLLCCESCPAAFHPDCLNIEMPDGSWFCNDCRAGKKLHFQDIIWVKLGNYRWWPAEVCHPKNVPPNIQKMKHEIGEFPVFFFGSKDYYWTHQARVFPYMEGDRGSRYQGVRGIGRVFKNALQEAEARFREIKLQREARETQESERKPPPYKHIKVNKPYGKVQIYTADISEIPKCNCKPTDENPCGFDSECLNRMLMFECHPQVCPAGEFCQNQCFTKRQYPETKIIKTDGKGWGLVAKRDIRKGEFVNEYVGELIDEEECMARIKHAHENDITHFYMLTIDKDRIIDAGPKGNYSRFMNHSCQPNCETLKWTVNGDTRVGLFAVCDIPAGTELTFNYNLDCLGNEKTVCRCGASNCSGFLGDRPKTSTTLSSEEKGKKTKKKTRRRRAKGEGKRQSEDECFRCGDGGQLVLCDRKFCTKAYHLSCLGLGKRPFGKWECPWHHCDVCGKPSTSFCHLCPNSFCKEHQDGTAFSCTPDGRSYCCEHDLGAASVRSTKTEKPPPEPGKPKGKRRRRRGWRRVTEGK

Cytochrome P450 2C19 = Cytochrome P450 2C19 (Homo sapiens, UniProt P33261); assay: Cytochrome panel assay with activity outcomes. Panel member name: p450-cyp2c19 Compounds with AC50 equal or less than 10 uM are considered active; format: functional; settings: read-out: AC50
Chain of Cytochrome P450 2C19 (P33261 whole entry): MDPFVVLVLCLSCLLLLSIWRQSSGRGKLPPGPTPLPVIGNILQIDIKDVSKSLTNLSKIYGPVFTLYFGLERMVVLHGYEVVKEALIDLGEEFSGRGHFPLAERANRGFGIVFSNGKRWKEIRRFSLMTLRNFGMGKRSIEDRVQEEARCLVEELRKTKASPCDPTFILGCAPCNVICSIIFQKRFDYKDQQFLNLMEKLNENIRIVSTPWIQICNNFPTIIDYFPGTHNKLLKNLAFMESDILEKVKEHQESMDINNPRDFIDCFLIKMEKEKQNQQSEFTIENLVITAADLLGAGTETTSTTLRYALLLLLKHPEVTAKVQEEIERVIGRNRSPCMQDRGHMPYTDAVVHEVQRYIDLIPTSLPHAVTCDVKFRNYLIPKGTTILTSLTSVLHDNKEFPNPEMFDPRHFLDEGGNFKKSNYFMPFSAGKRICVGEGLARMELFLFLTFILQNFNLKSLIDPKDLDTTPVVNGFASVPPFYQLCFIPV

Cytochrome P450 2D6 = Cytochrome P450 2D6 (Homo sapiens, UniProt P10635);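 note: CYP2D6 member of a cytochrome P450 panel assay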
Chain of Cytochrome P450 2D6 (P10635 whole entry): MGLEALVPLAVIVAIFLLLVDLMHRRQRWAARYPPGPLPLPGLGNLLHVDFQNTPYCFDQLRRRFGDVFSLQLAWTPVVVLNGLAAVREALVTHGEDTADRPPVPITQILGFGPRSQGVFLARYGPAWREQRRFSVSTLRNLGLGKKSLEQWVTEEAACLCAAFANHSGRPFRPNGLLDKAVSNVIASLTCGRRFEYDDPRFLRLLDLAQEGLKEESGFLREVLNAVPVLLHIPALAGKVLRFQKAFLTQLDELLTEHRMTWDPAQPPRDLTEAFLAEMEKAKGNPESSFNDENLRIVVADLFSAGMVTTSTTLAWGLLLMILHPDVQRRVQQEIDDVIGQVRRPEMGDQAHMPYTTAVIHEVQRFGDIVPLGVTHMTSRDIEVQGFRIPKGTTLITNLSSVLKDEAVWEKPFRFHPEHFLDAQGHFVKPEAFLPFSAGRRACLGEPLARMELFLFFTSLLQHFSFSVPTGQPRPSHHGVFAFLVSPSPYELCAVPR

O=C(CCc1ccc(O)cc1)N/N=C/c1coc2ccccc2c1=O
IC50 (Prothrombin): 6.25 µM (active)

Cc1nn(C)c(C)c1S(=O)(=O)N1CCC(C(=O)NCCC2=CCCCC2)CC1
IC50 (Coagulation factor XII): > 50 µM (inactive)
IC50 (Prothrombin): > 50 µM (not active)

O=C(O)Cc1ccc(NC(=O)CCN2C(=O)c3ccc([N+](=O)[O-])cc3C2=O)cc1
IC50 (Coagulation factor XII): > 50 µM (inactive)

Cc1[nH]n(-c2ccccc2)c(=O)c1N=Nc1ccc2c(c1)OCCO2
EC50 (cells [1]): > 350 µM (not active)
IC50 (Nonstructural protein 1): 41.2 µM (active)
EC50 (cells [2]): > 350 µM (not active)

O=[N+]([O-])c1ccc(O)c(Nc2c([N+](=O)[O-])ccc3nonc23)c1
IC50 (Nonstructural protein 1): 64.5 µM (active)

O=c1oc(-c2ccco2)nc2c1cnn2-c1ccccc1
IC50 (Coagulation factor XII): 18.2 µM (active)
IC50 (H9c2): > 79 µM (inactive)

O=C1SCCC1NC(=O)C(c1ccccc1)c1ccccc1 (configuration not stated)
IC50 (Coagulation factor XII): > 50 µM (inactive)

Cc1ccc(C(=O)N/N=C/c2ccc(-c3ccccc3[N+](=O)[O-])o2)cn1
EC50 (Protein RecA): 13.5 µM (active)
AC50 [3]: 30.6 µM (active)
IC50 [4]: > 50 µM (not active)

Cc1cc(C)n(-c2nnc(C)n2NS(=O)(=O)c2ccc(F)cc2)n1
IC50 (Coagulation factor XII): > 50 µM (inactive)

CCOc1ccc(OCC)c(NC(=O)CCS(=O)(=O)c2ccc(Br)s2)c1
IC50 (Prothrombin): 3.1 µM (active)

CS(=O)(=O)c1ccc2nc(NC(=O)c3ccc(NS(=O)(=O)c4cccc([N+](=O)[O-])c4)cc3)sc2c1
EC50 (Streptococcus): 12 µM (active)
IC50 (Prothrombin): > 50 µM (not active)
EC50 (Streptokinase A): > 150 µM (not active)
EC50 [5]: 2.32 µM (active)

Cc1nnc2c(-c3ccccc3)nc3ccccc3n12
IC50 (Prothrombin): > 50 µM (not active)

Nc1cccc2cnccc12
AC50 (Cytochrome P450 2C9): 28.2 µM (inconclusive)
AC50 [6]: > 20 µM (inactive)
AC50 (Cytochrome P450 2C19): 20 µM (inconclusive)
IC50 [4]: > 50 µM (not active)
AC50 (Cytochrome P450 2D6): 22.4 µM (inconclusive)

Cc1ccccc1NC(=O)Nc1ccccc1Br
IC50 (Prothrombin): > 50 µM (not active)

Reference: ChEMBL document CHEMBL1201862, “PubChem BioAssay data set” (2004)
